Reference: PubChem BioAssay AID2060622 (Molecular Pharmacology Branch, DTP, NCI, 2025)
Several values for one entry are separate records, joined by “and”; a condition that tells them apart may be missing. Identical values can stand only once.

Tested on: 242566-281-R-J2-PDC complex spheroid viability
Assay: Anticancer human tumor 242566-281-R-J2-PDC patient-derived pancreatic carcinoma cell line growth inhibition [CLK]
Details: for viability, T/C: stronger effect = lower value
How it was run: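 Multi-cell-type spheroids combined patient-derived tumor cells with HUVEC endothelial cells and human mesenchymal stem cells. Paired agents were dosed in half-log steps down from about clinical Cmax, or from 10 microM where Cmax was unknown.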

[1] = curve of first compound, second compound 0.0316 µM
[2] = curve of first compound, second compound 0.1 µM
[3] = curve of first compound, second compound 0.316 µM
[4] = curve of first compound, second compound 1 µM
[5] = curve of first compound, second compound 3.16 µM
[6] = curve of first compound, second compound 10 µM
[7] = second compound 0.0316 µM, first compound 0.0316 µM
[8] = second compound 0.0316 µM, first compound 0.1 µM
[9] = second compound 0.0316 µM, first compound 0.316 µM
[10] = second compound 0.0316 µM, first compound 1 µM
[11] = second compound 0.0316 µM, first compound 3.16 µM
[12] = second compound 0.0316 µM, first compound 10 µM
[13] = second compound 0.1 µM, first compound 0.0316 µM
[14] = second compound 0.1 µM, first compound 0.1 µM
[15] = second compound 0.1 µM, first compound 0.316 µM
[16] = second compound 0.1 µM, first compound 1 µM
[17] = second compound 0.1 µM, first compound 3.16 µM
[18] = second compound 0.1 µM, first compound 10 µM
[19] = second compound 0.316 µM, first compound 0.0316 µM
[20] = second compound 0.316 µM, first compound 0.1 µM
[21] = second compound 0.316 µM, first compound 0.316 µM
[22] = second compound 0.316 µM, first compound 1 µM
[23] = second compound 0.316 µM, first compound 3.16 µM
[24] = second compound 0.316 µM, first compound 10 µM
[25] = second compound 1 µM, first compound 0.0316 µM
[26] = second compound 1 µM, first compound 0.1 µM
[27] = second compound 1 µM, first compound 0.316 µM
[28] = second compound 1 µM, first compound 1 µM
[29] = second compound 1 µM, first compound 3.16 µM
[30] = second compound 1 µM, first compound 10 µM
[31] = second compound 3.16 µM, first compound 0.0316 µM
[32] = second compound 3.16 µM, first compound 0.1 µM
[33] = second compound 3.16 µM, first compound 0.316 µM
[34] = second compound 3.16 µM, first compound 1 µM
[35] = second compound 3.16 µM, first compound 3.16 µM
[36] = second compound 3.16 µM, first compound 10 µM
[37] = second compound 10 µM, first compound 0.0316 µM
[38] = second compound 10 µM, first compound 0.1 µM
[39] = second compound 10 µM, first compound 0.316 µM
[40] = second compound 10 µM, first compound 1 µM
[41] = second compound 10 µM, first compound 3.16 µM
[42] = second compound 10 µM, first compound 10 µM
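Also: spheroids exposed to compounds for 7 days before readout.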
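For viability, T/C in this document: 100% = DMSO vehicle control wells.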

CC(Nc1ccc2c(c1)OCCn1cc(N3C(=O)OCC3C(F)F)nc1-2)C(N)=O (centres undefined) + CNC(=O)c1ccc(Nc2nc(OC3CCCC3)c3c(-c4ccc5nc(C)oc5c4)c[nH]c3n2)c(OC)c1
IC50 [1]: 2140 nM
IC50 [2]: 1770 nM
IC50 [3]: 690 nM
IC50 [4]: 92.4 nM
IC50 [5]: < 31.6 nM
IC50 [6]: < 31.6 nM
viability, T/C [7]: 84.6%
viability, T/C [8]: 91.4%
viability, T/C [9]: 75.9%
viability, T/C [10]: 62.4%
viability, T/C [11]: 44.4%
viability, T/C [12]: 30.6%
viability, T/C [13]: 100%
viability, T/C [14]: 96.5%
viability, T/C [15]: 70.4%
viability, T/C [16]: 62.2%
viability, T/C [17]: 40.3%
viability, T/C [18]: 28.2%
viability, T/C [19]: 82.3%
viability, T/C [20]: 77.6%
viability, T/C [21]: 59.6%
viability, T/C [22]: 44%
viability, T/C [23]: 32.8%
viability, T/C [24]: 21.6%
viability, T/C [25]: 63.9%
viability, T/C [26]: 47.2%
viability, T/C [27]: 38.5%
viability, T/C [28]: 26.8%
viability, T/C [29]: 19.8%
viability, T/C [30]: 14.2%
viability, T/C [31]: 44.4%
viability, T/C [32]: 32.9%
viability, T/C [33]: 27.5%
viability, T/C [34]: 22.8%
viability, T/C [35]: 15.7%
viability, T/C [36]: 11.6%
viability, T/C [37]: 41%
viability, T/C [38]: 33.6%
viability, T/C [39]: 28.2%
viability, T/C [40]: 20.3%
viability, T/C [41]: 15.1%
viability, T/C [42]: 10.6%

CC1COCCN1c1cc(C2(S(C)(=N)=O)CC2)nc(-c2ccnc3[nH]ccc23)n1 (centres undefined)
viability, T/C (compound 0.0316 µM): 108% and 90.3%
viability, T/C (compound 0.1 µM): 104% and 84.2%
viability, T/C (compound 0.316 µM): 106% and 81%
viability, T/C (compound 1 µM): 108% and 90.7%
viability, T/C (compound 3.16 µM): 75.2% and 90.5%
viability, T/C (compound 10 µM): 37.9% and 60.6%
IC50 (curve of compound): 6890 nM and > 10000 nM

Cn1ncnc1[C@H]1c2n[nH]c(=O)c3cc(F)cc(c23)N[C@@H]1c1ccc(F)cc1
viability, T/C (compound 0.000316 µM): 106% and 93.2%
viability, T/C (compound 0.001 µM): 93.8% and 102%
viability, T/C (compound 0.00316 µM): 111% and 107%
viability, T/C (compound 0.01 µM): 107% and 91%
viability, T/C (compound 0.0316 µM): 96.3% and 95.3%
viability, T/C (compound 0.1 µM): 87.1% and 99.8%
IC50 (curve of compound): > 100 nM

CCc1c2c(nc3ccc(O)cc13)-c1cc3c(c(=O)n1C2)COC(=O)[C@]3(O)CC
viability, T/C (compound 0.00316 µM): 87.2% and 108%
viability, T/C (compound 0.01 µM): 56.3% and 60%
viability, T/C (compound 0.0316 µM): 30.8% and 39%
viability, T/C (compound 0.1 µM): 12.3% and 15.7%
viability, T/C (compound 0.316 µM): 5.72% and 5.99%
viability, T/C (compound 1 µM): 2.95% and 2.38%
IC50 (curve of compound): 13.4 nM and 16.9 nM

COc1cccc2c1C(=O)c1c(O)c3c(c(O)c1C2=O)CC(O)(C(=O)CO)CC3OC1CC(N)C(O)C(C)O1 (centres undefined) + CNC(=O)c1ccc(Nc2nc(OC3CCCC3)c3c(-c4ccc5nc(C)oc5c4)c[nH]c3n2)c(OC)c1
IC50 [1]: 185 nM
IC50 [2]: 159 nM
IC50 [3]: 102 nM
IC50 [4]: 31.7 nM
IC50 [5]: < 31.6 nM
IC50 [6]: < 31.6 nM
viability, T/C [7]: 86.6%
viability, T/C [8]: 64.8%
viability, T/C [9]: 37%
viability, T/C [10]: 16.4%
viability, T/C [11]: 6.4%
viability, T/C [12]: 1.62%
viability, T/C [13]: 86.8%
viability, T/C [14]: 64.7%
viability, T/C [15]: 27.8%
viability, T/C [16]: 16%
viability, T/C [17]: 6.66%
viability, T/C [18]: 1.48%
viability, T/C [19]: 80.4%
viability, T/C [20]: 51.2%
viability, T/C [21]: 15.9%
viability, T/C [22]: 10.4%
viability, T/C [23]: 1.13%
viability, T/C [24]: 1.75%
viability, T/C [25]: 50.1%
viability, T/C [26]: 20.2%
viability, T/C [27]: 6.31%
viability, T/C [28]: 2.71%
viability, T/C [29]: 1.6%
viability, T/C [30]: 1.45%
viability, T/C [31]: 37.1%
viability, T/C [32]: 11.2%
viability, T/C [33]: 3.77%
viability, T/C [34]: 1.91%
viability, T/C [35]: 1.71%
viability, T/C [36]: 1.85%
viability, T/C [37]: 31.5%
viability, T/C [38]: 10.5%
viability, T/C [39]: 3.98%
viability, T/C [40]: 1.91%
viability, T/C [41]: 1.68%
viability, T/C [42]: 2.07%

CC1COCCN1c1cc(C2(S(C)(=N)=O)CC2)nc(-c2ccnc3[nH]ccc23)n1 (centres undefined) + CN1CCN(c2cc(C(=O)Nc3cc4cc(-c5cnn(C)c5)ccc4cn3)ccn2)CC1
IC50 [1]: 6190 nM
IC50 [2]: 4500 nM
IC50 [3]: < 31.6 nM
IC50 [4]: < 31.6 nM
IC50 [5]: < 31.6 nM
IC50 [6]: < 31.6 nM
viability, T/C [7]: 119%
viability, T/C [8]: 103%
viability, T/C [9]: 97%
viability, T/C [10]: 104%
viability, T/C [11]: 73.8%
viability, T/C [12]: 31.6%
viability, T/C [13]: 103%
viability, T/C [14]: 97.8%
viability, T/C [15]: 97.3%
viability, T/C [16]: 83.1%
viability, T/C [17]: 62.6%
viability, T/C [18]: 22.6%
viability, T/C [19]: 36.3%
viability, T/C [20]: 28.3%
viability, T/C [21]: 31.2%
viability, T/C [22]: 20.4%
viability, T/C [23]: 17.5%
viability, T/C [24]: 8.72%
viability, T/C [25]: 4.95%
viability, T/C [26]: 4.97%
viability, T/C [27]: 4.82%
viability, T/C [28]: 5.18%
viability, T/C [29]: 5.87%
viability, T/C [30]: 6.94%
viability, T/C [31]: 7.02%
viability, T/C [32]: 7.62%
viability, T/C [33]: 8.37%
viability, T/C [34]: 7.12%
viability, T/C [35]: 8.01%
viability, T/C [36]: 9.37%
viability, T/C [37]: 2.02%
viability, T/C [38]: 1.85%
viability, T/C [39]: 2.1%
viability, T/C [40]: 1.7%
viability, T/C [41]: 1.8%
viability, T/C [42]: 1.35%

C#Cc1c(F)ccc2cc(O)cc(-c3ncc4c(N5CC6CCC(C5)N6)nc(OCC56CCCN5CC(F)C6)nc4c3F)c12 (centres undefined) + CNC(=O)c1ccc(Nc2nc(OC3CCCC3)c3c(-c4ccc5nc(C)oc5c4)c[nH]c3n2)c(OC)c1
IC50 [1]: 4270 nM
IC50 [2]: 1430 nM
IC50 [3]: 434 nM
IC50 [4]: < 31.6 nM
IC50 [5]: < 31.6 nM
IC50 [6]: < 31.6 nM
viability, T/C [7]: 106%
viability, T/C [8]: 89.4%
viability, T/C [9]: 68.1%
viability, T/C [10]: 60.8%
viability, T/C [11]: 52.1%
viability, T/C [12]: 45.6%
viability, T/C [13]: 109%
viability, T/C [14]: 92.9%
viability, T/C [15]: 67.6%
viability, T/C [16]: 55.3%
viability, T/C [17]: 42.2%
viability, T/C [18]: 32.9%
viability, T/C [19]: 81.7%
viability, T/C [20]: 66.7%
viability, T/C [21]: 52.2%
viability, T/C [22]: 39.3%
viability, T/C [23]: 36.5%
viability, T/C [24]: 22.3%
viability, T/C [25]: 48.4%
viability, T/C [26]: 29%
viability, T/C [27]: 22.9%
viability, T/C [28]: 16.5%
viability, T/C [29]: 13.4%
viability, T/C [30]: 15.5%
viability, T/C [31]: 20.3%
viability, T/C [32]: 17.5%
viability, T/C [33]: 15.9%
viability, T/C [34]: 11.8%
viability, T/C [35]: 10.9%
viability, T/C [36]: 7.39%
viability, T/C [37]: 17.5%
viability, T/C [38]: 14.5%
viability, T/C [39]: 13.2%
viability, T/C [40]: 10.8%
viability, T/C [41]: 11.1%
viability, T/C [42]: 6.78%
